These results are taken from ChEMBL document CHEMBL1141473, “Tricyclic HIV integrase inhibitors: potent and orally bioavailable C5-aza analogs” (Bioorg Med Chem Lett, 2008).

Structures are written as SMILES. Values after ≈ are worked out from the molar mass of the structure shown.

The nature of data set [1]: Inhibition of HIV integrase strand transfer activity. On the set-up: species or system Human immunodeficiency virus.
Data set [2] has as its system Human immunodeficiency virus. Put plainly: Antiviral activity against HIV in MT2 cells in presence of 35 mg/mL human serum albumin. The format is functional, organism-based. The conditions noted are these: Human immunodeficiency virus 1, MT2.
Data set [3] deals with Human immunodeficiency virus 1. The data set can be described thus: Antiviral activity against HIV1 3B in MT2 cells after 5 days. The data set is classed as functional, organism-based. The conditions noted are these: Human immunodeficiency virus 1, 3B, MT2, 120 h.
The nature of data set [4]: Aqueous solubility at pH 7.3. The format is physicochemical.
Data set [5] is described as follows: Oral bioavailability in rat. The format is ADME, organism-based. As to conditions: in vivo.
Data set [6] can be described thus: Half life in iv dosed rat. The conditions noted are these: in vivo. The format is ADME, organism-based.
Data set [7] can be described thus: Total clearance in iv dosed rat. The data set is classed as ADME, organism-based. As to conditions: in vivo.
Data set [8] can be described thus: Oral bioavailability in dog. The format is ADME, organism-based, Canis lupus familiaris. As to conditions: in vivo.
Data set [9] is described as follows: Half life in iv dosed dog. As to conditions: in vivo. The data set is classed as ADME, organism-based, Canis lupus familiaris.
Data set [10] can be described thus: Total clearance in iv dosed dog. The data set is classed as ADME, organism-based, Canis lupus familiaris. The conditions noted are these: in vivo.

The IC50 is the concentration that gives 50% inhibition. A word on the EC50: it is the concentration that produces a half-maximal response. The molecule `O=C1c2c(c(C(=O)N3CCOCC3)c3cccnc3c2O)CN1Cc1ccc(F)cc1` had an IC50 in data set [1] of 50 nM. Besides, in data set [2], the EC50 came out at 54 nM.

`Cc1nnc(C(=O)NC(C)(C)c2nc(C(=O)NCc3ccc(F)cc3)c(O)c(=O)n2C)o1` came in with an IC50 in data set [1] of 27 nM. In data set [3], this molecule had an EC50 of 6 nM.

`CC(=O)N(C)c1c2c(c(O)c3ncccc13)C(=O)N(Cc1ccc(F)cc1)C2` returned an IC50 in [1] of 100 nM. Further, in data set [3], it took 47 nM to reach a half-maximal effect (EC50).

Usually solubility stands for the concentration that dissolves in the medium under given conditions. Read a high solubility as a readily soluble substance. In turn, `CN(C)C(=O)N(C)c1c2c(c(O)c3ncccc13)C(=O)N(Cc1ccc(F)cc1)C2` displayed an IC50 in data set [1] of 71 nM. In data set [3], this molecule returned an EC50 of 10 nM. The same molecule registered a solubility in data set [4] of 844 µM (≈ 345 µg/mL).

`CN(C)C(=O)C(=O)N(C)c1c2c(c(O)c3ncccc13)C(=O)N(Cc1ccc(F)cc1)C2` gave an IC50 in data set [1] of 265 nM. In data set [3], the response was half-maximal at 31 nM (EC50).

As a reminder, the bioavailability is dose-corrected exposure relative to a reference, in per cent. For orientation: half-life means the time in which the quantity being followed falls by half. Lower therefore signals fast loss. As a reminder, the clearance is the volume of plasma or blood freed of the substance per unit of time. Molecule `O=C1c2c(c(N3CCCS3(=O)=O)c3cccnc3c2O)CN1Cc1ccc(F)cc1` returned an IC50 in data set [1] of 13 nM. Moreover, the EC50 in [3] was determined as 1.4 nM; in data set [2], 49 nM. Further, the solubility in data set [4] came out at 2.8 µM (≈ 1.2 µg/mL). Besides, the results for the bioavailability in data set [5] and in data set [8] were 4% and 8.3%, respectively. Moreover, the half-life was 36 min in data set [6] and 48 min in data set [9]. Moreover, the clearance in data set [7] was 25.5 mL/min/kg; in data set [10], 5 mL/min/kg.

In data set [1], `CN(C)S(=O)(=O)N(C)c1c2c(c(O)c3ncccc13)C(=O)N(Cc1ccc(F)cc1)C2` yielded an IC50 of 62 nM. Moreover, the figures for the EC50 in [3] and in [2] were 3.1 nM and 8.4 nM, respectively. The molecule also gave a solubility in [4] of 4.5 µM (≈ 2 µg/mL). The values for the bioavailability in [5] and in data set [8] were 13% and 16%, respectively. Also, the half-life in data set [6] is 54 min; in data set [9] it was 270 min. Besides, the values for the clearance in data set [7] and in data set [10] were 3.83 mL/min/kg and 5.67 mL/min/kg, respectively.
